Assay results published in patent US8685726B2, “Small molecules supporting pluripotent cell growth and methods thereof” (Viacyte, Inc., priority 2009, dated 2014).
“Also recorded” adds a separate entry of the source.

Tests used:
CyT49 cells [1] = assay: Suspension aggregate culture, cell counts and aggregate diameters; type: cell-based, human; conditions: for serial passages maintained in suspension with undifferentiated morphology: suspension culture, 50 μM
Protocol: FIG. 10. Effects of NE and ACh in suspension culture of hES cell. (A) 5×10^6 CyT49 cells were seeded in 5 ml StemPro® hESC SFM containing heregulin, LR3-IGF1, Activin and the indicated neurotransmitters at 50 μM in low-attachment 6-well trays and placed at 100 rpm. Undifferentiated suspension aggregates were imaged on day 4. (B) 24 hours after seeding, two wells from each condition were harvested and counted to determine the number of viable cells. (C) Cell counts of each condition when the cultures were split on day 4. (D) The images in (A) were used to determine aggregate diameters using the ImagePro software measurement tool. Average diameters and standard deviations from 50-100 aggregates from each condition are shown. (E) Passage 1 cell counting data. 5×10^6 CyT49 hES cells from p0 cells in (A) were seeded into the same conditions. The aggregates in the condition containing Y27632 were larger and had to be passaged 3 days after seeding, before the centers of the largest aggregates became necrotic. Conversely, the other conditions could be cultured for 6 days before passaging, resulting in higher cell counts.
(§1) FIG. 11. Suspension hES cell cultured with NE, […] remain undifferentiated. CyT49 cells were grown as suspension aggregates in the presence of NE, […] for 16 passages without differentiating morphologically. After p10, some cells were re-plated to adherent culture and examined by karyotyping and immunofluorescent staining for OCT4 and Tra-1-61. All cultures remained undifferentiated and expressed these pluripotency markers uniformly. (SP) StemPro® SFM HIA, NE (+NE at 50 μM), ACh (+ACh at 50 μM), NE/ACh (+NE/ACh at 50 μM). Karyotype data is shown to the right. […] Cultures containing ACh were aneuploid.
Small molecule ligands that support survival or self-renewal at low cell densities could also be expected to have beneficial effects in other culture formats. Applicants have previously developed a suspension culture system for hES cells that enables serial propagation of cells and effective expansion of cultures. Human ES cells, at least BG02 and CyT49 cells, have been maintained in suspension for greater than 10 passages without differentiation. The basis of the technique is to dissociate cultures to single cells with reagents that preserve high viability, such as Accutase™, TrypLE or cell dispersal buffer, then aggregate defined concentrations of cells in defined medium in rotational culture. These methods are described in more detail in International Application PCT/US2008/082356, entitled STEM CELL AGGREGATE SUSPENSION COMPOSITIONS AND METHODS OF DIFFERENTIATION THEREOF, filed Nov. 4, 2008; and International Application PCT/US2007/062755, entitled COMPOSITIONS AND METHODS FOR CULTURING DI[…], filed Feb. 23, 2007, which are herein incorporated by reference in their entireties. Self-aggregation of hES cells occurs in the absence of added extracellular matrix (ECM) or ECM-like proteins and is presumed to be driven in part by homotypic interaction of E-cadherin. The aggregates that are formed expand over 3-4 days and are kept apart from each other by the shear forces generated by rotational culture. Cells are blocked from differentiating by the self-renewal signaling provided by the defined medium and retain their pluripotent characteristics: marker expression, normal karyotype, and differentiation potential in vitro and in teratomas. […]

CyT49 cells [2] = assay: Karyotyping (G-banding) of replated suspension cultures after 10 passages; type: cell-based, human; conditions: after 10 passages in suspension, G-banded
Protocol: as §1
To examine these possibilities, these cultures were serially passaged to p1 (FIG. 10E). Because Y27632 treated aggregates were of a larger size, they required passaging after only 3 days, and only generated about 1.2×10^7 cells during that period. In contrast, the cultures containing NE, ACh or NE/ACh were cultured for 6 days and generated greater than 2×10^7 cells per well. Suspension cultures containing NE, ACh or NE/ACh were maintained for 12 serial passages, in parallel with a HAIF control culture, and all conditions maintained an undifferentiated morphology throughout. Suspension aggregates were dissociated to single cells after 10 passages and replated to adherent culture for analyses. […] Replated cultures were also G-banded to determine their karyotype.

Structure (SMILES) | serial passages maintained in suspension with undifferentiated morphology (CyT49 cells [1]) [serial passages] | aggregate size on day 4 (CyT49 cells [1]; suspension, StemPro hESC SFM HIA, neurotransmitters 50 μM) | karyotype (CyT49 cells [2])
NCC(O)c1ccc(O)c(O)c1 (racemic) [NE, (±)-Norepinephrine (+)-bitartrate] | 12 | smaller aggregates | 
CC(=O)OCC[N+](C)(C)C [ACh, acetylcholine] | 12 |  | aneuploid or abnormal; also recorded: aneuploid
